One assay relates to p300. As to conditions: cited from earlier work.
A further assay concerns the target T1, HAT1 (Homo sapiens, UniProt O14929).
T1 sequence (O14929 20-341): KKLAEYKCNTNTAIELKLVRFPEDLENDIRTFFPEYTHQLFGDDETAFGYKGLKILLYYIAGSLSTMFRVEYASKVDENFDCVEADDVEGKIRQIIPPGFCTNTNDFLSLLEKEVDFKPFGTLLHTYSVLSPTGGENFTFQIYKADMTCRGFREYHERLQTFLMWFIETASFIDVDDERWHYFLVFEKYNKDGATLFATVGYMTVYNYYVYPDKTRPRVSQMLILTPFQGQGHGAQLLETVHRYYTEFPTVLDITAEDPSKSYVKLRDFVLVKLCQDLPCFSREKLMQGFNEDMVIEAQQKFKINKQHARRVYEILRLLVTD
Put plainly: Scintillation proximity assay. The format is biochemical. To be noted: SPA, 40 nM HAT1, […] H4-20 BTN, 1 µM [3H]AcCoA, 30°C, 20 min; for pKi: calculated from Kiapp (Equation 2); for pIC50: calculated from Kiapp (Equation 3).

Each structure is given as a SMILES string. pIC50, pKi: −log10 of the molar value.

Here are results for two compounds from paper PMC6533141 (Chemical biology & drug design, 2019).

Consider `CC(=O)N[C@@H](CCCCNC(=O)CSCCNC(=O)CCNC(=O)[C@H](O)C(C)(C)COP(=O)(O)OP(=O)(O)OC[C@H]1O[C@@H](n2cnc3c(N)ncnc32)[C@H](O)[C@@H]1OP(=O)(O)O)C(N)=O` [Lys-CoA, Ac-Lys(CoA)-NH2], for which the values for the negative logarithm of the IC50 (pIC50) in the assay on p300 and on HAT1 were 6.30 and 4.13, respectively. Further, the pKi – broadly, the Ki on a negative log10 scale, so that one unit is a factor of ten – at p300 (previous study) was 7.72; at HAT1, 4.58.
Turning to `CC(C)(COP(=O)(O)OP(=O)(O)OC[C@H]1O[C@@H](n2cnc3c(N)ncnc32)[C@H](O)[C@@H]1OP(=O)(O)O)[C@@H](O)C(=O)NCCC(=O)NCCS` [CoA], at HAT1, the pKi was 4.84 and the pIC50 (in general, −log10 of the IC50, conventionally taken in molar units) is 4.38.
